The target of experiment [1] is T1, human D3 receptor (Homo sapiens, UniProt P35462).
T1 construct: expressed in transfected cells
The experiment is described as follows: D3R radioligand binding, [3H]N-methylspiperone, HEK293 membranes. The conditions noted are these: for D2R Ki / D3R Ki: ratio of Ki values.

Experiment [2] addresses T2, human D2L receptor (Homo sapiens, UniProt P14416).
T2 construct: expressed in transfected cells
The experiment is described as follows: D2R radioligand binding, [3H]N-methylspiperone, HEK293 membranes.

The target of experiment [3] is T3, 5-HT2B (Homo sapiens, UniProt P41595). The experiment is described as follows: 5-HT2B IP-1, agonist. It is filed as cell-based. To be noted: agonist mode.
Experiment [4] concerns the target T3, 5-HT2B. The experiment is described as follows: 5-HT2B IP-1, antagonist. It is filed as cell-based.
In experiment [5] the target is T4, D2LR (Homo sapiens, UniProt P14416).
T4 construct: expressed in transfected cells; host or cells: HEK 293T, transient
It is filed as cell-based. To be noted: miniG recruitment assay.

Experiment [6] relates to cocaine self-administration in rats. To be noted: general knowledge statement; cited from earlier work.
Where [7] appears, read: [3H]N-methylspiperone, mean ± SEM of at least three experiments, read-out: D3R Ki ± SEM.

Read-outs that look alike come from different tables or passages of the source.

T2 sequence (P14416 whole entry): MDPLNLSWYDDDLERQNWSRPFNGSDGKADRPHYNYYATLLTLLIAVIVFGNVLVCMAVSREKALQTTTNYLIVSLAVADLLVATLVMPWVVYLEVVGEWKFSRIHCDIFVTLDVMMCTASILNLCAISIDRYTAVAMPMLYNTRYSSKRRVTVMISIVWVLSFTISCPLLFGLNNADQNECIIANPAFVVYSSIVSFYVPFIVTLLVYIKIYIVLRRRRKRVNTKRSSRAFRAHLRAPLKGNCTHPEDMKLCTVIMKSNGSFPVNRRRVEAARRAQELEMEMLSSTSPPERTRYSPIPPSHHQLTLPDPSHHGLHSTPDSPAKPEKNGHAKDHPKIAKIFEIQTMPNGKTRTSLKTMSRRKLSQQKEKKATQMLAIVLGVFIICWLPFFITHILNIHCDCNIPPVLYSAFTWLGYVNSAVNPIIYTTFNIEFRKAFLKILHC
T3 sequence (P41595 whole entry, species assumed): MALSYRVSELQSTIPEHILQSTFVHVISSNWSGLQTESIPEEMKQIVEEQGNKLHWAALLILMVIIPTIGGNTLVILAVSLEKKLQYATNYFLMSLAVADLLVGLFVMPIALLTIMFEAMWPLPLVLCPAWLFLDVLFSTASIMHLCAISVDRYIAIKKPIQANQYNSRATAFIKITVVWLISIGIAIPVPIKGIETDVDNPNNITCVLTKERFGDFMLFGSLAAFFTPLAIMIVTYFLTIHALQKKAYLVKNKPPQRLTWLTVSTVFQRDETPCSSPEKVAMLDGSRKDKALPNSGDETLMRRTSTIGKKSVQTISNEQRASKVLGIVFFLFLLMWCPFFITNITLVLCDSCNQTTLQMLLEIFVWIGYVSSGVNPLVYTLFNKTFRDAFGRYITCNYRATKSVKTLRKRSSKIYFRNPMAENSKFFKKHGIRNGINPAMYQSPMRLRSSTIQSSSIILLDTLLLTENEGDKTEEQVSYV
T1 sequence (P35462 whole entry): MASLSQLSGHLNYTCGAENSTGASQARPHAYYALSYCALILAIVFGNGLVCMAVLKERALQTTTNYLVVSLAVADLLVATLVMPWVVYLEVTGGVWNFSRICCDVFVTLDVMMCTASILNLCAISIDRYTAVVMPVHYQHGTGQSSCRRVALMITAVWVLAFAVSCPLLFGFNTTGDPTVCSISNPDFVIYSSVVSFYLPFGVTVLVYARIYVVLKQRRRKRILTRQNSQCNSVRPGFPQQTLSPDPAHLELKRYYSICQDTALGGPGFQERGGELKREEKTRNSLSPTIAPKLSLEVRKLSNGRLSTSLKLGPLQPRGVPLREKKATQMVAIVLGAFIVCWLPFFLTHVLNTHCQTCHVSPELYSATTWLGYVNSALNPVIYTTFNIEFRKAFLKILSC
T4 sequence (P14416 whole entry): as the sequence (P14416 whole entry) above

A word on the Ki: it is a dissociation constant, usually derived from enzyme kinetics or from competition with a known ligand. As to `COc1ccccc1N1CCN(CC[C@H]2CC[C@H](NC(=O)N(C)C)CC2)CC1` [Compound 6f, 3-(trans-4-(2-(4-(2-Methoxyphenyl)piperazin-1-yl)ethyl)cyclohexyl)-1,1-dimethylurea], the values for the inhibition constant (Ki) in experiment [1] and in experiment [2] were 1.01 ± 0.32 nM and 6.07 ± 2.32 nM, respectively. In addition, the “D2R Ki / D3R Ki” value in experiment [1] ([3H]N-methylspiperone) was 6.0.
On to `CN(C)C(=O)N[C@H]1CC[C@H](CCN2CCN(c3ccc(Cl)cc3)CC2)CC1` [Compound 6g, 3-(trans-4-(2-(4-(4-Chlorophenyl)piperazin-1-yl)ethyl)cyclohexyl)-1,1-dimethylurea], for which the Ki is 33.8 ± 0.8 nM in experiment [1] and 337 ± 24 nM in experiment [2].
On to `CN(C)C(=O)N[C@H]1CC[C@H](CCN2CCN(c3ncccn3)CC2)CC1` [Compound 6h, 1,1-Dimethyl-3-(trans-4-(2-(4-(pyrimidin-2-yl)piperazin-1-yl)ethyl)cyclohexyl)urea], for which the Ki in experiment [1] was 600 ± 136 nM; in experiment [2], 3440 ± 464 nM. Also, in experiment [1] ([3H]N-methylspiperone), the “D2R Ki / D3R Ki” value is 5.7.
On to `CN(C)C(=O)N[C@H]1CC[C@H](CCN2CCN(c3nsc4ccccc34)CC2)CC1` [Compound 6i, 3-(trans-4-(2-(4-(Benzo[d]isothiazol-3-yl)piperazin-1-yl)ethyl)cyclohexyl)-1,1-dimethylurea], for which the Ki in experiment [1] worked out at 4.17 ± 0.33 nM; in experiment [2], 4.43 ± 0.38 nM. In addition, the “D2R Ki / D3R Ki” value in experiment [1] ([3H]N-methylspiperone) is reported as 1.1.
On the same counts, the results for `CN(C)C(=O)N[C@H]1CC[C@H](CCN2CCC(c3noc4cc(F)ccc34)CC2)CC1` [Compound 6j, 3-(trans-4-(2-(4-(6-Fluorobenzo[d]isoxazol-3-yl)piperidin-1-yl)ethyl)cyclohexyl)-1,1-dimethylurea] are 5.37 ± 0.72 nM, 5.26 ± 1.56 nM and 1.0.
Consider `CN(C)C(=O)N[C@H]1CC[C@H](CCN2CCN(c3ccc4oc(C(N)=O)cc4c3)CC2)CC1` [Compound 6k, 5-(4-(2-(trans-4-(3,3-Dimethylureido)cyclohexyl)ethyl)piperazin-1-yl)benzofuran-2-carboxamide], for which the figures for the Ki in experiment [1] and in experiment [2] were 1460 ± 270 nM and 61100 ± 35100 nM, respectively. Also, in experiment [1] ([3H]N-methylspiperone), the “D2R Ki / D3R Ki” value was 41.9.
Take `CCc1cccc(N2CCN(CC[C@H]3CC[C@H](NC(=O)c4cc5ccccc5[nH]4)CC3)CC2)c1Cl` [Compound 10b, N-(trans-4-(2-(4-(2-Chloro-3-ethylphenyl)piperazin-1-yl)ethyl)cyclohexyl)indole-2-carboxamide]: the Ki in experiment [2] (read-out: D2R Ki ± SEM) turned out to be 7.8 ± 1.9 nM.
In general, EC50 refers to the midpoint of the concentration-response curve. What is called IC50 is the midpoint of a concentration-inhibition curve. As for `COCCC(=O)N[C@H]1CC[C@H](CCN2CCN(c3cccc(C(F)(F)F)n3)CC2)CC1` [Compound 13d], the “5-HT2B IP-1 Emax ± SEM” value is 6.66 ± 0.91% in experiment [3] and 95.6 ± 2.0% in experiment [4]. Moreover, in experiment [3] (read-out: 5-HT2B IP-1 EC50 ± SEM), the EC50 was 37 ± 10 nM. Moreover, in experiment [4] (read-out: 5-HT2B IP-1 IC50 ± SEM), the IC50 was found to be 460 ± 100 nM.
`COC(=O)N[C@H]1CC[C@H](CCN2CCN(c3cccc(Cl)c3Cl)CC2)CC1` [Compound 14a, Methyl (trans-4-(2-(4-(2,3-dichlorophenyl)piperazin-1-yl)ethyl)cyclohexyl)carbamate]: the Ki in experiment [1] (setting [7]) was found to be 0.323 ± 0.075 nM; in experiment [2] (read-out: D2R Ki ± SEM), 3.72 ± 0.02 nM. The “D2R Ki / D3R Ki” value in experiment [1] ([3H]N-methylspiperone) was found to be 11.5.
With `CCOC(=O)N[C@H]1CC[C@H](CCN2CCN(c3cccc(Cl)c3Cl)CC2)CC1` [Compound 14b, Ethyl (trans-4-(2-(4-(2,3-dichlorophenyl)piperazin-1-yl)ethyl)cyclohexyl)carbamate], the figures for the Ki in experiment [1] (setting [7]) and in experiment [2] (read-out: D2R Ki ± SEM) were 0.965 ± 0.129 nM and 8.4 ± 2.43 nM, respectively.
On to `CCCOC(=O)N[C@H]1CC[C@H](CCN2CCN(c3cccc(Cl)c3Cl)CC2)CC1` [Compound 14c, Propyl (trans-4-(2-(4-(2,3-dichlorophenyl)piperazin-1-yl)ethyl)cyclohexyl)carbamate], for which the Ki in experiment [1] (setting [7]) worked out at 1.74 ± 0.17 nM; in experiment [2] (read-out: D2R Ki ± SEM) it was 25 ± 2.1 nM. The “D2R Ki / D3R Ki” value in experiment [1] ([3H]N-methylspiperone) was determined as 14.4.
In the case of `COCC(=O)N[C@H]1CC[C@H](CCN2CCN(c3cccc(Cl)c3Cl)CC2)CC1` [Compound 14d, N-(trans-4-(2-(4-(2,3-Dichlorophenyl)piperazin-1-yl)ethyl)cyclohexyl)-2-methoxyacetamide], the Ki in experiment [1] is ≤ 1 nM; in experiment [1] (setting [7]), 0.268 ± 0.065 nM; in experiment [2] (read-out: D2R Ki ± SEM), 7.67 ± 0.69 nM. For the same molecule, in experiment [1] ([3H]N-methylspiperone), the “D2R Ki / D3R Ki” value is on record as 28.6.
As for `CCOCC(=O)N[C@H]1CC[C@H](CCN2CCN(c3cccc(Cl)c3Cl)CC2)CC1` [Compound 14e, N-(trans-4-(2-(4-(2,3-Dichlorophenyl)piperazin-1-yl)ethyl)cyclohexyl)-2-ethoxyacetamide], the Ki in experiment [1] is ≤ 1 nM; in experiment [1] (setting [7]), 1.06 ± 0.32 nM; in experiment [2] (read-out: D2R Ki ± SEM) it was 41.3 ± 3.9 nM.
As for `COCCCC(=O)N[C@H]1CC[C@H](CCN2CCN(c3cccc(Cl)c3Cl)CC2)CC1` [Compound 14f, N-(trans-4-(2-(4-(2,3-Dichlorophenyl)piperazin-1-yl)ethyl)cyclohexyl)-4-methoxybutanamide], the Ki in experiment [1] (setting [7]) stood at 1.15 ± 0.29 nM; in experiment [2] (read-out: D2R Ki ± SEM), 21.7 ± 3.8 nM. In experiment [1] ([3H]N-methylspiperone), the “D2R Ki / D3R Ki” value is given as 18.9.
As to `CN(C)CC(=O)N[C@H]1CC[C@H](CCN2CCN(c3cccc(Cl)c3Cl)CC2)CC1` [Compound 14g, N-(trans-4-(2-(4-(2,3-dichlorophenyl)piperazin-1-yl)ethyl)cyclohexyl)-2-(dimethylamino)acetamide], the Ki in experiment [1] (setting [7]) was determined as 0.398 ± 0.084 nM; in experiment [2] (read-out: D2R Ki ± SEM) it was 3.72 ± 0.46 nM.
Take `CCC(=O)N[C@H]1CC[C@H](CCN2CCN(c3cccc(Cl)c3Cl)CC2)CC1` [Compound 14i, N-(trans-4-(2-(4-(2,3-Dichlorophenyl)piperazin-1-yl)ethyl)cyclohexyl)propionamide]: the Ki in experiment [1] (setting [7]) stood at 0.447 ± 0.119 nM; in experiment [2] (read-out: D2R Ki ± SEM), 6.06 ± 1.07 nM. The “D2R Ki / D3R Ki” value in experiment [1] ([3H]N-methylspiperone) is 13.6.
Take `CCCC(=O)N[C@H]1CC[C@H](CCN2CCN(c3cccc(Cl)c3Cl)CC2)CC1` [Compound 14j, N-(trans-4-(2-(4-(2,3-Dichlorophenyl)piperazin-1-yl)ethyl)cyclohexyl)butyramide]: the figures for the Ki in experiment [1] (setting [7]) and in experiment [2] (read-out: D2R Ki ± SEM) were 0.875 ± 0.178 nM and 25.6 ± 5.7 nM, respectively. In experiment [1] ([3H]N-methylspiperone), the “D2R Ki / D3R Ki” value came out at 29.3.
In the case of `CCCCC(=O)N[C@H]1CC[C@H](CCN2CCN(c3cccc(Cl)c3Cl)CC2)CC1` [Compound 14k, N-(trans-4-(2-(4-(2,3-Dichlorophenyl)piperazin-1-yl)ethyl)cyclohexyl)pentanamide], the values for the Ki in experiment [1] (setting [7]) and in experiment [2] (read-out: D2R Ki ± SEM) were 2.37 ± 0.6 nM and 51.5 ± 18.6 nM, respectively. Besides, in experiment [1] ([3H]N-methylspiperone), the “D2R Ki / D3R Ki” value was determined as 21.7.
Turning to `O=C1OCCCN1[C@H]1CC[C@H](CCN2CCN(c3cccc(Cl)c3Cl)CC2)CC1` [Compound 34b, 3-(trans-4-(2-(4-(2,3-Dichlorophenyl)piperazin-1-yl)ethyl)cyclohexyl)-1,3-oxazinan-2-one], the values for the Ki in experiment [1], in experiment [1] (setting [7]) and in experiment [2] (read-out: D2R Ki ± SEM) were ≤ 1 nM, 0.248 ± 0.101 nM and 5.46 ± 2.14 nM, respectively.
With `O=C1NCCN1[C@H]1CC[C@H](CCN2CCN(c3cccc(Cl)c3Cl)CC2)CC1` [Compound 35a, 1-(trans-4-(2-(4-(2,3-Dichlorophenyl)piperazin-1-yl)ethyl)cyclohexyl)imidazolidin-2-one], the values for the Ki in experiment [1] (setting [7]) and in experiment [2] (read-out: D2R Ki ± SEM) were 0.438 ± 0.053 nM and 5.66 ± 0.89 nM, respectively. In addition, in experiment [1] ([3H]N-methylspiperone), the “D2R Ki / D3R Ki” value was 12.9.
On to `O=C1NCCCN1[C@H]1CC[C@H](CCN2CCN(c3cccc(Cl)c3Cl)CC2)CC1` [Compound 35b, 1-(trans-4-(2-(4-(2,3-Dichlorophenyl)piperazin-1-yl)ethyl)cyclohexyl)tetrahydropyrimidin-2(1H)-one], for which the Ki in experiment [1] (setting [7]) is 2.97 ± 0.85 nM; in experiment [2] (read-out: D2R Ki ± SEM), 19 ± 4.7 nM.
The corresponding values for `O=C1CCCN1[C@H]1CC[C@H](CCN2CCN(c3cccc(Cl)c3Cl)CC2)CC1` [Compound 36a, 1-(trans-4-(2-(4-(2,3-Dichlorophenyl)piperazin-1-yl)ethyl)cyclohexyl)100yrrolidine-2-one] are 0.537 ± 0.167 nM and 4.49 ± 0.78 nM.
Regarding `O=C1CCCCN1[C@H]1CC[C@H](CCN2CCN(c3cccc(Cl)c3Cl)CC2)CC1` [Compound 36b, 1-(trans-4-(2-(4-(2,3-Dichlorophenyl)piperazin-1-yl)ethyl)cyclohexyl)piperidin-2-one], the Ki is 1.74 ± 0.46 nM in experiment [1] (setting [7]) and 9.89 ± 2.77 nM in experiment [2] (read-out: D2R Ki ± SEM).
With `NCCc1ccc(O)c(O)c1` [Dopamine, dopamine, reference compound], the “D2R activity in words, miniG assay” value in experiment [5] was “equivalent maximal responses”.
`O=c1[nH]c2ccccc2n1C1CCN(CCCC(c2ccc(F)cc2)c2ccc(F)cc2)CC1` [pimozide]: the “biphasic effects on cocaine self-administration” value in experiment [6] is listed as “biphasic effects”.
On to (+)-butaclamol, for which the “biphasic effects on cocaine self-administration” value in experiment [6] is recorded as “biphasic effects”.

(Values after US20260356809A1 (The United States of America, as represented by the …, priority 2022, published 2026).)
